Data from ChEMBL document CHEMBL5030559, “Imaging Autotaxin In Vivo with 18F-Labeled Positron Emission Tomography Ligands” (J Med Chem, 2021).
Values belong to the compound of their own block, whether it stands above or below them.

Key:
Autotaxin = Autotaxin (Homo sapiens, UniProt Q13822); experiment: Inhibition of ATX lysoPLD (unknown origin) using 18:1 LPC as substrate assessed as reduction in choline release by HVA fluorescence based analysis
[1] = Drug uptake in liver of LPS- induced CD-1 mouse model assessed as increase in signal of tracer in inflammed liver by measuring AUC (30 to 60 mins) relative to control; type: ADME, tissue-based; conditions: in vivo, time 30-60 min
[2] = Drug uptake in iv dosed CD-1 mouse liver assessed as high radioactivity in liver measured up to 60 mins post injection by PET imaging analysis; type: ADME, organism-based; conditions: in vivo, 1 h
[3] = Drug uptake in iv dosed CD-1 mouse small intestine assessed as high radioactivity in small intestine measured up to 60 mins post injection by PET imaging analysis; type: ADME, organism-based; conditions: in vivo, 1 h
[4] = Ex vivo biodistribution in bone of iv dosed CD-1 mouse assessed as accumulation of radioactivity in bone measured after 15 to 60 min by PET imaging analysis; type: ADME, organism-based, Bone element; conditions: time 15-60 min
[5] = Drug uptake in iv dosed CD-1 mouse kidney assessed as high radioactivity in kidney measured up to 60 mins post injection by PET imaging analysis; type: ADME, organism-based; conditions: in vivo, 1 h
[6] = Drug uptake in liver of LPS- induced CD-1 mouse model assessed as increase in signal of tracer in liver measured after 30 mins by autoradiography analysis relative to control; type: ADME, tissue-based; conditions: in vivo, 0.5 h
[7] = Drug uptake in iv dosed CD-1 mouse bone assessed as accumulation of radioactivity in bone measured after 30 to 60 mins post injection by PET imaging analysis; type: ADME, organism-based, Bone element; conditions: in vivo, time 30-60 min
[8] = Drug uptake in iv dosed CD-1 mouse bone measured after 30 min by PET imaging analysis; type: ADME, organism-based, Bone element; conditions: in vivo, 0.5 h
[9] = Drug uptake in iv dosed CD-1 mouse brain measured up to 60 mins post injection by PET imaging analysis; type: ADME, organism-based; conditions: in vivo, 1 h
[10] = Drug uptake in iv dosed CD-1 mouse bone assessed as accumulation of radioactivity in bone measured after 60 mins post injection by PET imaging analysis; type: ADME, organism-based, Bone element; conditions: in vivo, 1 h
[11] = Drug uptake in iv dosed CD-1 mouse bone assessed as accumulation of radioactivity in bone measured after 30 mins post injection by PET imaging analysis; type: ADME, organism-based, Bone element; conditions: in vivo, 0.5 h

SMILES: CCc1nc2ccc(N3CCN(CC(=O)N4CC(O)C4)CC3)cn2c1N(C)c1nc(-c2ccc(F)cc2)c(C#N)s1
Ki (Autotaxin): 30 nM

SMILES: [2H]C([2H])([18F])C([2H])([2H])N1CCN(C(=O)CN2CCN(c3ccc4nc(CC)c(N(C)c5nc(-c6ccc(F)cc6)c(C#N)s5)n4c3)CC2)CC1
Drug uptake [1]: 84%
Drug uptake [2]: Active
Drug uptake [3]: Active
Drug uptake [4]: Not Active
Drug uptake [5]: Active
Drug uptake [6]: 92%

SMILES: CCc1nc2ccc(N3CCN(CC(=O)N4CCC([18F])CC4)CC3)cn2c1N(C)c1nc(-c2ccc(F)cc2)c(C#N)s1
Drug uptake [7]: 10 % ID/g

SMILES: CCc1nc2ccc(N3CCN(CC(=O)N4CC[C@H](F)C4)CC3)cn2c1N(C)c1nc(-c2ccc(F)cc2)c(C#N)s1
Ki (Autotaxin): 32 nM

SMILES: CCc1nc2ccc(N3CCN(CC(=O)N4CCC(C[18F])C4)CC3)cn2c1N(C)c1nc(-c2ccc(F)cc2)c(C#N)s1 (stereo not drawn)
Drug uptake [2]: Active
Drug uptake [3]: Active
Drug uptake [8]: Active
Drug uptake [9]: Not Active
Drug uptake [4]: Active
Drug uptake [5]: Active

SMILES: CCc1nc2ccc(N3CCN(CC(=O)N4CC(F)C4)CC3)cn2c1N(C)c1nc(-c2ccc(F)cc2)c(C#N)s1
Ki (Autotaxin): 41 nM

SMILES: CCc1nc2ccc(N3CCN(CC(=O)N4CCN(CC[18F])CC4)CC3)cn2c1N(C)c1nc(-c2ccc(F)cc2)c(C#N)s1
Drug uptake [10]: 6.4 % ID/g
Drug uptake [11]: 6.6 % ID/g

SMILES: CCc1nc2ccc(N3CCN(CC(=O)N4CCC([18F])C4)CC3)cn2c1N(C)c1nc(-c2ccc(F)cc2)c(C#N)s1 (stereo not drawn)
Drug uptake [7]: 10 % ID/g

The remaining compounds from weak to strong by Ki (Autotaxin), led by results:

Ki (Autotaxin): 19 nM
SMILES: [2H]C([2H])(F)C([2H])([2H])N1CCN(C(=O)CN2CCN(c3ccc4nc(CC)c(N(C)c5nc(-c6ccc(F)cc6)c(C#N)s5)n4c3)CC2)CC1

Ki (Autotaxin): 17 nM
SMILES: CCc1nc2ccc(N3CCN(CC(=O)N4CC(OCCF)C4)CC3)cn2c1N(C)c1nc(-c2ccc(F)cc2)c(C#N)s1

Ki (Autotaxin): 15 nM
SMILES: CCc1nc2ccc(N3CCN(CC(=O)N4CCC(F)CC4)CC3)cn2c1N(C)c1nc(-c2ccc(F)cc2)c(C#N)s1

Ki (Autotaxin): 15 nM
SMILES: CCc1nc2ccc(N3CCN(CC(=O)N4CCC(F)C4)CC3)cn2c1N(C)c1nc(-c2ccc(F)cc2)c(C#N)s1 (stereo not drawn)

Ki (Autotaxin): 15 nM
SMILES: CCc1nc2ccc(N3CCN(CC(=O)N4CCCC(F)C4)CC3)cn2c1N(C)c1nc(-c2ccc(F)cc2)c(C#N)s1 (stereo not drawn)

Ki (Autotaxin): 14 nM
SMILES: CCc1nc2ccc(N3CCN(CC(=O)N4CC(CF)C4)CC3)cn2c1N(C)c1nc(-c2ccc(F)cc2)c(C#N)s1

Ki (Autotaxin): 14 nM
SMILES: CCc1nc2ccc(N3CCN(CC(=O)N4CC[C@@H](F)C4)CC3)cn2c1N(C)c1nc(-c2ccc(F)cc2)c(C#N)s1

Ki (Autotaxin): 13 nM
SMILES: CCc1nc2ccc(N3CCN(CC(=O)N4CCN(CCF)CC4)CC3)cn2c1N(C)c1nc(-c2ccc(F)cc2)c(C#N)s1

Ki (Autotaxin): 7 nM
SMILES: CCc1nc2ccc(N3CCN(CC(=O)N4CCC(CF)C4)CC3)cn2c1N(C)c1nc(-c2ccc(F)cc2)c(C#N)s1 (stereo not drawn)
